Reference: PMC4964461, “Synthesis and Evaluation of Tricarbonyl ^99mTc-Labeled 2-(4-Chloro)phenyl-imidazo[1,2-a]pyridine Analogs as Novel SPECT Imaging Radiotracer for TSPO-Rich Cancer” (International Journal of Molecular Sciences, 2016)

Molecular target: T1, 18-kDa translocator protein (TSPO) (Rattus norvegicus, UniProt P16257)
T1 construct: native TSPO in rat C6 glioma cell membranes
Test: [3H]-PK […] radioligand displacement on C6 glioma membrane extracts
Type: binding
Conditions: read-out: Ki (nM) for TSPO

SMILES | Ki [nM]
CCCN(CCC)C(=O)Cc1c(-c2ccc(Cl)cc2)nc2c(NC(=O)C[N+]34Cc5cccc[n+]5[Re-5]3([C]#[O+])([C]#[O+])([C]#[O+])[n+]3ccccc3C4)cccn12 (centres unmarked) [compound 2, Re-CB256] | 159 ± 8.7
CCCN(CCC)C(=O)Cc1c(-c2ccc(Cl)cc2)nc2c(NC(=O)CN(Cc3ccccn3)Cc3ccccn3)cccn12 [compound 3] | 148 ± 11.3
